Source: US20020137929A1, “1 - (3-heterocyclylphenyl) isothiourea, -isourea, -guanidine and -amidine herbicidal agents” (Intellectual Property Department, BASF Aktiengesellschaft, priority 1998, published 2002)

Key:
[1] = system: AMBEL (Ragweed, Common); test: Postemergence herbicidal evaluation; assay type: in vivo, Ambrosia artemisifolia; conditions: postemergence
In short: (§1)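 Scores (0–9) reflect plant stand, vigor, malformation, size, chlorosis and general appearance relative to control, read 4 to 5 weeks after treatment and averaged where tests were repeated. Application: about 0.0156–0.500 kg/ha sprayed at 40 psi onto two-week seedlings.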

[2] = system: CASOB (Sicklepod); test: Postemergence herbicidal evaluation; assay type: in vivo, Cassia obtusifolia; conditions: postemergence
In short: as §1

[3] = system: GALAP (Galium); test: Postemergence herbicidal evaluation; assay type: in vivo, Galium aparine; conditions: postemergence
In short: as §1

[4] = system: IPOHE (Morningglory, Ivyleaf); test: Postemergence herbicidal evaluation; assay type: in vivo, Ipomoea hederacea; conditions: postemergence
In short: as §1

[5] = system: ABUTH (Velvetleaf); test: Preemergence herbicidal evaluation; assay type: in vivo, Abutilon theophrasti; conditions: rated 4-5 weeks after treatment
In short: (§2)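 Sown cups got a single aqueous acetone spray of test compound (roughly 0.0156–0.500 kg/ha) before seedlings emerged. Evaluation, 4–5 weeks on, used a 0–9 visual scale covering plant stand, vigor, size, malformation, chlorosis and general appearance compared with controls.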

[6] = system: CASOB (Sicklepod); test: Preemergence herbicidal evaluation; assay type: in vivo, Cassia obtusifolia; conditions: rated 4-5 weeks after treatment
In short: as §2

[7] = system: IPOHE (Morningglory, Ivyleaf); test: Preemergence herbicidal evaluation; assay type: in vivo, Ipomoea hederacea; conditions: rated 4-5 weeks after treatment
In short: as §2

[8] = system: ECHCG (Barnyardgrass); test: Preemergence herbicidal evaluation; assay type: in vivo, Echinochloa crus-galli; conditions: rated 4-5 weeks after treatment
In short: as §2

[9] = system: GLXMAW (Soybean, Williams); test: Preemergence herbicidal evaluation; assay type: in vivo, Glycine max, (L.) Merr. cv Williams; conditions: rated 4-5 weeks after treatment
In short: as §2

[10] = system: TRZAWR (Wheat, Winter, cv Riband); test: Preemergence herbicidal evaluation; assay type: in vivo, Triticum aestivum; conditions: rated 4-5 weeks after treatment
In short: as §2

[11] = system: ZEAMX (Corn, Field); test: Preemergence herbicidal evaluation; assay type: in vivo, Zea mays; conditions: rated 4-5 weeks after treatment
In short: as §2

[12] = system: MOOVA (Monochoria); test: Preemergence weed control under flooded paddy conditions; assay type: in vivo, Monochoria vaginalis; conditions: rated 3-4 weeks after treatment
In short: (§3)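 Ratings on a 0-9 visual scale cover stand, vigor, malformation, size, chlorosis and overall appearance relative to a control, taken three to four weeks post-treatment. Application was into flood water over freshly sown silt loam at roughly 0.0313 to 0.500 kg/ha.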

[13] = system: SAGPY (Arrowhead (Pygmaea)); test: as above; assay type: in vivo, Sagittaria pygmaea; conditions: rated 3-4 weeks after treatment
In short: as §3

[14] = rate 0.1250 kg/ha, rating scale 0-9
[15] = rate 0.2500 kg/ha, rating scale 0-9
[16] = rate 0.0625 kg/ha, rating scale 0-9

In the case of Cn1c(C(F)(F)F)cc(=O)n(-c2cc(N=C3SCC(=O)N3CC(F)(F)F)c(Cl)cc2F)c1=O [Compound 163, 3-{4-Chloro-2-fluoro-5-{[4-oxo-3-(2,2,2-trifluoroethyl)-2-thiazolidinylidene]amino}phenyl}-1-methyl-6-(trifluoromethyl)-2,4(1H,3H)-pyrimidinedione], the “herbicidal rating AMBEL” value ([1]; rate 0.0156 kg/ha) is reported as 9.0, the “herbicidal rating AMBEL” value ([1]; rate 0.0313 kg/ha) is reported as 9.0 and the “herbicidal rating AMBEL” value ([1]; rate 0.0625 kg/ha) is reported as 9.0. For the same compound, the “herbicidal rating CASOB” value ([2]; rate 0.0156 kg/ha) was 0.0, the “herbicidal rating CASOB” value ([2]; rate 0.0313 kg/ha) was 0.0 and the “herbicidal rating CASOB” value ([2]; rate 0.0625 kg/ha) was 3.0. The “herbicidal rating GALAP” value ([3]; rate 0.0156 kg/ha) was 0.0, the “herbicidal rating GALAP” value ([3]; rate 0.0313 kg/ha) was 3.0 and the “herbicidal rating GALAP” value ([3]; rate 0.0625 kg/ha) was 5.0. The “herbicidal rating IPOHE” value ([4]; rate 0.0156 kg/ha) was 9.0, the “herbicidal rating IPOHE” value ([4]; rate 0.0313 kg/ha) was 9.0 and the “herbicidal rating IPOHE” value ([4]; rate 0.0625 kg/ha) was 9.0. The “Preemergence herbicidal rating ABUTH” value ([5]; 0.0156 kg/ha) was 9.0, the “Preemergence herbicidal rating ABUTH” value ([5]; 0.0313 kg/ha) was 9.0 and the “Preemergence herbicidal rating ABUTH” value ([5]; 0.0625 kg/ha) was 9.0. For the same compound, the “Preemergence herbicidal rating ABUTH” value ([5]; 0.1250 kg/ha) was 9.0, the “Preemergence herbicidal rating ABUTH” value ([5]; 0.2500 kg/ha) was 9.0 and the “Preemergence herbicidal rating CASOB” value ([6]; 0.0156 kg/ha) was 0.0. The “Preemergence herbicidal rating CASOB” value ([6]; 0.0313 kg/ha) was 0.0, the “Preemergence herbicidal rating CASOB” value ([6]; 0.0625 kg/ha) was 0.0 and the “Preemergence herbicidal rating CASOB” value ([6]; 0.1250 kg/ha) was 0.0. For the same compound, the “Preemergence herbicidal rating CASOB” value ([6]; 0.2500 kg/ha) was 5.0, the “Preemergence herbicidal rating IPOHE” value ([7]; 0.0156 kg/ha) was 0.0 and the “Preemergence herbicidal rating IPOHE” value ([7]; 0.0313 kg/ha) was 0.0. For the same compound, the “Preemergence herbicidal rating IPOHE” value ([7]; 0.0625 kg/ha) was 3.0, the “Preemergence herbicidal rating IPOHE” value ([7]; 0.1250 kg/ha) was 9.0 and the “Preemergence herbicidal rating IPOHE” value ([7]; 0.2500 kg/ha) was 9.0. For the same compound, the “Preemergence herbicidal rating ECHCG” value ([8]; 0.0156 kg/ha) was 2.0, the “Preemergence herbicidal rating ECHCG” value ([8]; 0.0313 kg/ha) was 4.0 and the “Preemergence herbicidal rating ECHCG” value ([8]; 0.0625 kg/ha) was 7.0. The “Preemergence herbicidal rating ECHCG” value ([8]; 0.1250 kg/ha) was 8.0, the “Preemergence herbicidal rating ECHCG” value ([8]; 0.2500 kg/ha) was 9.0 and the “Preemergence herbicidal rating GLXMAW” value ([9]; 0.0156 kg/ha) was 0.0. For the same compound, the “Preemergence herbicidal rating GLXMAW” value ([9]; 0.0313 kg/ha) was 2.0, the “Preemergence herbicidal rating GLXMAW” value ([9]; 0.0625 kg/ha) was 3.0 and the “Preemergence herbicidal rating GLXMAW” value ([9]; 0.1250 kg/ha) was 3.0. The “Preemergence herbicidal rating GLXMAW” value ([9]; 0.2500 kg/ha) was 5.0, the “Preemergence herbicidal rating TRZAWR” value ([10]; 0.0156 kg/ha) was 0.0 and the “Preemergence herbicidal rating TRZAWR” value ([10]; 0.0313 kg/ha) was 0.0. The “Preemergence herbicidal rating TRZAWR” value ([10]; 0.0625 kg/ha) was 3.0, the “Preemergence herbicidal rating TRZAWR” value ([10]; 0.1250 kg/ha) was 7.0 and the “Preemergence herbicidal rating TRZAWR” value ([10]; 0.2500 kg/ha) was 7.0. For the same compound, the “Preemergence herbicidal rating ZEAMX” value ([11]; 0.0156 kg/ha) was 5.0, the “Preemergence herbicidal rating ZEAMX” value ([11]; 0.0313 kg/ha) was 5.0 and the “Preemergence herbicidal rating ZEAMX” value ([11]; 0.0625 kg/ha) was 7.0. For the same compound, the “Preemergence herbicidal rating ZEAMX” value ([11]; 0.1250 kg/ha) was 7.0, the “Preemergence herbicidal rating ZEAMX” value ([11]; 0.2500 kg/ha) was 8.0 and the “herbicidal effect rating, MOOVA” value ([12]; 0.0313 kg/ha) was 9.0. The “herbicidal effect rating, MOOVA” value ([12]; 0.0625 kg/ha) was 9.0, the “herbicidal effect rating, MOOVA” value ([12]; 0.1250 kg/ha) was 9.0 and the “herbicidal effect rating, MOOVA” value ([12]; 0.2500 kg/ha) was 9.0. For the same compound, the “herbicidal effect rating, SAGPY” value ([13]; 0.0313 kg/ha) was 2.0, the “herbicidal effect rating, SAGPY” value ([13]; 0.0625 kg/ha) was 3.0 and the “herbicidal effect rating, SAGPY” value ([13]; 0.1250 kg/ha) was 6.0. For the same compound, the “herbicidal effect rating, SAGPY” value ([13]; 0.2500 kg/ha) was 7.0.

With COc1ccc(CN2C(=O)CSC2=Nc2cc(-n3c(=O)cc(C(F)(F)F)n(C)c3=O)c(F)cc2Cl)cc1OC [Compound 134, 3-{4-Chloro-5-{[3-(3,4-dimethoxybenzyl)-4-oxo-2-thiazolidinylidene]amino}-2-fluorophenyl}-1-methyl-6-(trifluoromethyl)-2,4(1H,3H)-pyrimidinedione] the “herbicidal rating AMBEL” value ([1]; rate 0.0156 kg/ha) was 3.0, the “herbicidal rating AMBEL” value ([1]; rate 0.0313 kg/ha) was 4.0 and the “herbicidal rating AMBEL” value ([1]; rate 0.0625 kg/ha) was 7.0. For the same compound, the “herbicidal rating CASOB” value ([2]; rate 0.0156 kg/ha) was 0.0, the “herbicidal rating CASOB” value ([2]; rate 0.0313 kg/ha) was 0.0 and the “herbicidal rating CASOB” value ([2]; rate 0.0625 kg/ha) was 0.0. The “herbicidal rating GALAP” value ([3]; rate 0.0156 kg/ha) was 0.0, the “herbicidal rating GALAP” value ([3]; rate 0.0313 kg/ha) was 1.0 and the “herbicidal rating GALAP” value ([3]; rate 0.0625 kg/ha) was 2.0. For the same compound, the “herbicidal rating IPOHE” value ([4]; rate 0.0156 kg/ha) was 3.0, the “herbicidal rating IPOHE” value ([4]; rate 0.0313 kg/ha) was 9.0 and the “herbicidal rating IPOHE” value ([4]; rate 0.0625 kg/ha) was 9.0. For the same compound, the “Preemergence herbicidal rating ABUTH” value [5, 14] was 0.0, the “Preemergence herbicidal rating ABUTH” value [5, 15] was 7.0 and the “Preemergence herbicidal rating CASOB” value [6, 14] was 0.0. The “Preemergence herbicidal rating CASOB” value [6, 15] was 1.0, the “Preemergence herbicidal rating IPOHE” value [7, 14] was 0.0 and the “Preemergence herbicidal rating IPOHE” value [7, 15] was 0.0. For the same compound, the “Preemergence herbicidal rating ECHCG” value [8, 14] was 0.0, the “Preemergence herbicidal rating ECHCG” value [8, 15] was 0.0 and the “Preemergence herbicidal rating GLXMAW” value [9, 14] was 0.0. The “Preemergence herbicidal rating GLXMAW” value [9, 15] was 0.0, the “Preemergence herbicidal rating TRZAWR” value [10, 14] was 0.0 and the “Preemergence herbicidal rating TRZAWR” value [10, 15] was 0.0. For the same compound, the “Preemergence herbicidal rating ZEAMX” value [11, 14] was 0.0, the “Preemergence herbicidal rating ZEAMX” value [11, 15] was 0.0 and the “herbicidal effect rating, MOOVA” value ([12]; 0.2500 kg/ha) was 2.0. For the same compound, the “herbicidal effect rating, SAGPY” value ([13]; 0.2500 kg/ha) was 0.0.

With COCCN1C(=O)CSC1=Nc1cc(-n2c(=O)cc(C(F)(F)F)n(C)c2=O)c(F)cc1Cl [Compound 155, 3-{4-Chloro-2-fluoro-5-{[3-(2-methoxyethyl)-4-oxo-2-thiazolidinylidene]amino}phenyl}-1-methyl-6-(trifluoromethyl)-2,4(1H,3H)-pyrimidinedione] the “herbicidal rating AMBEL” value ([1]; rate 0.0156 kg/ha) was 0.0, the “herbicidal rating AMBEL” value ([1]; rate 0.0313 kg/ha) was 0.0 and the “herbicidal rating AMBEL” value ([1]; rate 0.0625 kg/ha) was 0.0. The “herbicidal rating CASOB” value ([2]; rate 0.0156 kg/ha) was 0.0, the “herbicidal rating CASOB” value ([2]; rate 0.0313 kg/ha) was 0.0 and the “herbicidal rating CASOB” value ([2]; rate 0.0625 kg/ha) was 0.0. For the same compound, the “herbicidal rating GALAP” value ([3]; rate 0.0156 kg/ha) was 0.0, the “herbicidal rating GALAP” value ([3]; rate 0.0313 kg/ha) was 0.0 and the “herbicidal rating GALAP” value ([3]; rate 0.0625 kg/ha) was 0.0. The “herbicidal rating IPOHE” value ([4]; rate 0.0156 kg/ha) was 2.0, the “herbicidal rating IPOHE” value ([4]; rate 0.0313 kg/ha) was 4.0 and the “herbicidal rating IPOHE” value ([4]; rate 0.0625 kg/ha) was 9.0. The “Preemergence herbicidal rating ABUTH” value [5, 16] was 2.0, the “Preemergence herbicidal rating ABUTH” value [5, 14] was 4.0 and the “Preemergence herbicidal rating ABUTH” value [5, 15] was 7.0. For the same compound, the “Preemergence herbicidal rating CASOB” value [6, 16] was 0.0, the “Preemergence herbicidal rating CASOB” value [6, 14] was 0.0 and the “Preemergence herbicidal rating CASOB” value [6, 15] was 0.0. The “Preemergence herbicidal rating IPOHE” value [7, 16] was 0.0, the “Preemergence herbicidal rating IPOHE” value [7, 14] was 0.0 and the “Preemergence herbicidal rating IPOHE” value [7, 15] was 2.0. The “Preemergence herbicidal rating ECHCG” value [8, 16] was 0.0, the “Preemergence herbicidal rating ECHCG” value [8, 14] was 0.0 and the “Preemergence herbicidal rating ECHCG” value [8, 15] was 0.0. The “Preemergence herbicidal rating GLXMAW” value [9, 16] was 0.0, the “Preemergence herbicidal rating GLXMAW” value [9, 14] was 0.0 and the “Preemergence herbicidal rating GLXMAW” value [9, 15] was 4.0. For the same compound, the “Preemergence herbicidal rating TRZAWR” value [10, 16] was 0.0, the “Preemergence herbicidal rating TRZAWR” value [10, 14] was 0.0 and the “Preemergence herbicidal rating TRZAWR” value [10, 15] was 0.0. The “Preemergence herbicidal rating ZEAMX” value [11, 16] was 0.0, the “Preemergence herbicidal rating ZEAMX” value [11, 14] was 0.0 and the “Preemergence herbicidal rating ZEAMX” value [11, 15] was 2.0. For the same compound, the “herbicidal effect rating, MOOVA” value ([12]; 0.0313 kg/ha) was 0.0, the “herbicidal effect rating, MOOVA” value ([12]; 0.0625 kg/ha) was 0.0 and the “herbicidal effect rating, MOOVA” value ([12]; 0.1250 kg/ha) was 0.0. The “herbicidal effect rating, MOOVA” value ([12]; 0.2500 kg/ha) was 0.0, the “herbicidal effect rating, SAGPY” value ([13]; 0.0313 kg/ha) was 0.0 and the “herbicidal effect rating, SAGPY” value ([13]; 0.0625 kg/ha) was 0.0. For the same compound, the “herbicidal effect rating, SAGPY” value ([13]; 0.1250 kg/ha) was 0.0 and the “herbicidal effect rating, SAGPY” value ([13]; 0.2500 kg/ha) was 0.0.
